Results on 31 compounds are retold here after US20250024871A1, “AMIDE COMPOUNDS AND THEIR USE AS FLAVOR MODIFIERS” (Firmenich Incorporated, priority 2021, published 2025).

The target of the experiment is T1, T1R umami taste receptor (Homo sapiens, UniProt Q7RTX0+Q7RTX1).
T1 sequence (Q7RTX1 21-841): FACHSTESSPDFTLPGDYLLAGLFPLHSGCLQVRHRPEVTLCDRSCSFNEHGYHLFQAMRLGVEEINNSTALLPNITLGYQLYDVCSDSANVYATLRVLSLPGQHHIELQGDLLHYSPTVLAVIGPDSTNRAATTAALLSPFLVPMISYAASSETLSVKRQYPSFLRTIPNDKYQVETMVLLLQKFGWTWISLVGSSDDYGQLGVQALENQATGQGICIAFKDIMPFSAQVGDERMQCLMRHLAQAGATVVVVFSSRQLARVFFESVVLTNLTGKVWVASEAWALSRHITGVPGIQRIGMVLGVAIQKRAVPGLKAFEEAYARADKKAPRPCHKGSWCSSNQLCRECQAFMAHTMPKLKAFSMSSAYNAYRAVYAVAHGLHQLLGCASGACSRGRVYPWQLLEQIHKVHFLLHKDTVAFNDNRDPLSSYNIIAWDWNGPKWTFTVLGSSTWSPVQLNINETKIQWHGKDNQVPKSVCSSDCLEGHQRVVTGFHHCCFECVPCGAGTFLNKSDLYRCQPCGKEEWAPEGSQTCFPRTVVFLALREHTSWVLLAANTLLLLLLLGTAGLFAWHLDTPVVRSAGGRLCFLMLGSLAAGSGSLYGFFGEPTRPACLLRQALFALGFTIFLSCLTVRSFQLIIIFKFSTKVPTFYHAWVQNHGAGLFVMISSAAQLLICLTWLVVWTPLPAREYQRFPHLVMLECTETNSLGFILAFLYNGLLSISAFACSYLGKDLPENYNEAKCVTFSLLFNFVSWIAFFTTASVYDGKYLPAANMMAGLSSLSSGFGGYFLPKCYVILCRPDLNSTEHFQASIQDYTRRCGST
T1 sequence (Q7RTX0 21-852): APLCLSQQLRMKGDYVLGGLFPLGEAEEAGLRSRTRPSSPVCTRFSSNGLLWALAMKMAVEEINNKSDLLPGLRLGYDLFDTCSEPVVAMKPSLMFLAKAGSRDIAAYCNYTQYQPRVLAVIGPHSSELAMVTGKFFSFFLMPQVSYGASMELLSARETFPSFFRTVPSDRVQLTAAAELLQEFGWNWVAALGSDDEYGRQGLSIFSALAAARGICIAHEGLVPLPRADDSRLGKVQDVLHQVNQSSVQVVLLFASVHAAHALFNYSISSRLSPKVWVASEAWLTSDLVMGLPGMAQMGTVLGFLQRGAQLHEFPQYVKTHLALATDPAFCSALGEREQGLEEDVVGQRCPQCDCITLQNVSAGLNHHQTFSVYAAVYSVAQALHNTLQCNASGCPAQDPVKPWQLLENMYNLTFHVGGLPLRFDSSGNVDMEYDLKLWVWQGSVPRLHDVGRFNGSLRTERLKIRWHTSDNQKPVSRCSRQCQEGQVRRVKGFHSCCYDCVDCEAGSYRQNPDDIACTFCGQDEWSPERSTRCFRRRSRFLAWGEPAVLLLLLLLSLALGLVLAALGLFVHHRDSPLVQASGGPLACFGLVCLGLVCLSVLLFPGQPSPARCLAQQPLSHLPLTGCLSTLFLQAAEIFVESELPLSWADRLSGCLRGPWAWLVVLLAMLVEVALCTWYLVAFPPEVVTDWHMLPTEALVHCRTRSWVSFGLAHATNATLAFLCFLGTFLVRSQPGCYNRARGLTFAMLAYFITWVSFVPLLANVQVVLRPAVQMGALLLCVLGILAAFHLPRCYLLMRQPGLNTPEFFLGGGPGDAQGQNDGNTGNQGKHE
As to the kind of experiment: in vitro cell-based assay having cells that express the T1R umami taste receptor (enhancement of MSG). The following applies: for EC50: cells expressing T1R umami taste receptor, read-out: EC50 for enhancement of MSG binding. On the procedure:
Each of Compounds 101-183 was synthesized according to one of the general procedures set forth above in Examples 1. Thereafter, the compounds were tested in an in vitro cell-based assay having cells that express the T1R umami taste receptor. Dose-binding curves were recorded and the EC50 was determined for enhancement of MSG binding. Table 2 sets forth the calculated EC50 values for certain tested compounds as well as the MSG enhancement ratio at a particular concentration.

The term EC50 denotes the concentration needed to bring the measured effect to its halfway point.

Regarding `CCC/C=C/C(=O)N[C@H](C(=O)OC)[C@@H](C)CC` [Compound 174, Methyl ((E)-hex-2-enoyl)-L-isoleucinate], the EC50 was 30 µM. Moreover, where the note is “compound at 10 μM”, the “MSG Enh. Ratio” value is 3.6 @.

Regarding `CCOc1ccc(/C=C/C(=O)N[C@@H](Cc2ccccc2)C(=O)OC)cc1` [Compound 155, Methyl (E)-(3-(4-ethoxyphenyl)acryloyl)-L-phenylalaninate], the EC50 came out at 1 µM. The “MSG Enh. Ratio” value (compound at 0.3 μM) is recorded as 8.1 @. As to `CCOC(=O)[C@@H](CC(C)C)NC(=O)c1ccc2c(c1)OCO2` [Compound 130, Ethyl (benzo[d][1,3]dioxole-5-carbonyl)-D-leucinate], the EC50 came to 0.5 µM. `COC(=O)[C@H](Cc1ccccc1)NC(=O)c1cccc(OC)c1` [Compound 107, Methyl (3-methoxybenzoyl)-L-phenylalaninate]: the concentration for a half-maximal effect (EC50) is above 50 µM. For the same compound, where the note is “compound at 50 μM”, the “MSG Enh. Ratio” value is given as 3.2 @. As to `CCOC(=O)CC[C@H](NC(=O)c1ccc(C)c(C)n1)C(=O)OCC` [Compound 131, Diethyl (5,6-dimethylpicolinoyl)-L-glutamate], under “compound at 50 μM”, the “MSG Enh. Ratio” value was 5.6 @. In the case of `CCOC(=O)[C@@H](CC(C)C)NC(=O)c1ccc(C)c(C)c1` [Compound 115, Ethyl (3,4-dimethylbenzoyl)-D-leucinate], the EC50 was 0.1 µM. In the case of `COC(=O)CC[C@H](NC(=O)/C=C/C(C)C)C(=O)OC` [Compound 173, Dimethyl (E)-(4-methylpent-2-enoyl)-L-glutamate], the half-maximal effective concentration (EC50) is above 50 µM. Also, the “MSG Enh. Ratio” value (compound at 50 μM) is 3.1 @.

Turning to `COC(=O)[C@@H](NC(=O)c1ccc(C)c(C)c1)C(C)C` [Compound 117, Methyl (3,4-dimethylbenzoyl)-L-valinate], the half-maximal effective concentration (EC50) was determined as 11.1 µM. Also, for the setting “compound at 3 μM”, the “MSG Enh. Ratio” value is given as 4.6 @. As for `CCOC(=O)CC[C@H](NC(=O)/C=C/c1ccc(O)cc1)C(=O)OCC` [Compound 164, Diethyl (E)-(3-(4-hydroxyphenyl)acryloyl)-L-glutamate], the EC50 was above 50 µM. In addition, the “MSG Enh. Ratio” value (compound at 50 μM) was 4.2 @. `COC(=O)[C@H](Cc1ccccc1)NC(=O)c1ccc2c(c1)OCO2` [Compound 128, Methyl (benzo[d][1,3]dioxole-5-carbonyl)-L-phenylalaninate]: the EC50 was above 50 µM. Further, the “MSG Enh. Ratio” value (compound at 10 μM) is given as 3.7 @.

As for `COC(=O)[C@H](Cc1ccccc1)NC(=O)c1ccc(OC)c(OC)c1` [Compound 123, Methyl (3,4-dimethoxybenzoyl)-L-phenylalaninate], the EC50 is above 50 µM. In addition, the “MSG Enh. Ratio” value (compound at 50 μM) is recorded as 2.5 @. Consider `C/C=C/C=C/C(=O)N[C@@H](Cc1ccccc1)C(=O)OCC` [Compound 180, Ethyl ((2E,4E)-hexa-2,4-dienoyl)-L-phenylalaninate], for which the EC50 is above 50 µM. Further, for the setting “compound at 50 μM”, the “MSG Enh. Ratio” value was 3.4 @. With `CCOc1ccc(C(=O)N[C@H](CC(C)C)C(=O)OC)cc1` [Compound 109, Methyl (4-ethoxybenzoyl)-D-leucinate], the EC50 is 0.7 µM. Consider `CCC/C=C/C(=O)N[C@@H](Cc1ccccc1)C(=O)OCC` [Compound 177, Ethyl (E)-hex-2-enoyl-L-phenylalaninate], for which the EC50 was around 40 µM. Also, the “MSG Enh. Ratio” value (compound at 50 μM) is given as 8.8 @. For `CCOC(=O)[C@H](CC(C)C)NC(=O)/C=C/c1ccc2c(c1)OCO2` [Compound 162, Ethyl (E)-(3-(benzo[d][1,3]dioxol-5-yl)acryloyl)-L-leucinate] the same measures were above 50 µM and 3.4 @.

As for `CCOC(=O)[C@H](CC(C)C)NC(=O)/C=C/C(C)C` [Compound 169, Ethyl (E)-(4-methylpent-2-enoyl)-L-leucinate], the EC50 was determined as 12.9 µM. Further, under “compound at 3 μM”, the “MSG Enh. Ratio” value is 4.2 @. In the case of `COC(=O)[C@H](CC(C)C)NC(=O)c1ccc(C)cc1` [Compound 103, Methyl (4-methylbenzoyl)-L-leucinate], the EC50 was above 50 µM. Where the note is “compound at 50 μM”, the “MSG Enh. Ratio” value is given as 3.4 @. On to `CCOC(=O)[C@@H](NC(=O)/C=C/c1ccccc1)C(C)C` [Compound 136, Ethyl cinnamoyl-L-valinate], for which the 50% effective concentration (EC50) was found to be 23 µM. Also, where the note is “compound at 10 μM”, the “MSG Enh. Ratio” value is 5.4 @.

Consider `CCOC(=O)CC[C@H](NC(=O)c1cc(OC)cc(OC)c1)C(=O)OCC` [Compound 126, Diethyl (3,5-dimethoxybenzoyl)-L-glutamate], for which the “MSG Enh. Ratio” value (compound at 50 μM) is 5.2 @. For `CCOC(=O)[C@@H](CC(C)C)NC(=O)/C=C/C(C)C` [Compound 171, Ethyl (E)-(4-methylpent-2-enoyl)-D-leucinate], the EC50 was 3.34 µM. Moreover, the “MSG Enh. Ratio” value (compound at 3 μM) is reported as 8.96 @.

On to `COC(=O)[C@@H](CC(C)C)NC(=O)c1ccc(C)c(C)c1` [Compound 114, Methyl (3,4-dimethylbenzoyl)-D-leucinate], for which the EC50 amounted to 0.7 µM. With `COC(=O)[C@H](Cc1ccccc1)NC(=O)c1ccc(C)cc1` [Compound 104, Methyl (4-methylbenzoyl)-L-phenylalaninate], the EC50 was above 50 µM. Besides, the “MSG Enh. Ratio” value (compound at 10 μM) is on record as 3.3 @. Regarding `CCOC(=O)[C@H](NC(=O)/C=C/c1ccc(OC)cc1)C(C)C` [Compound 145, Ethyl (E)-(3-(4-methoxyphenyl)acryloyl)-D-valinate], the EC50 turned out to be 1 µM. As to `C=C(C)C1CC=C(C(=O)N[C@@H](Cc2ccccc2)C(=O)OC)CC1` (stereo partly drawn) [Compound 166, Methyl (4-(prop-1-en-2-yl)cyclohex-1-ene-1-carbonyl)-L-phenylalaninate], the concentration giving a half-maximal response (EC50) was above 50 µM. The “MSG Enh. Ratio” value (compound at 50 μM) is given as 4.6 @. Turning to `CC[C@H](C)[C@H](NC(=O)c1ccc(OC)c(OC)c1)C(=O)OC` [Compound 125, Methyl (3,4-dimethoxybenzoyl)-L-isoleucinate], the concentration for a half-maximal effect (EC50) is above 50 µM. Moreover, where the note is “compound at 50 μM”, the “MSG Enh. Ratio” value is recorded as 2.7 @. For the compound `CCOC(=O)[C@@H](NC(=O)/C=C/c1ccccc1OC)C(C)C` [Compound 143, Ethyl (E)-(3-(2-methoxyphenyl)acryloyl)-L-valinate], the EC50 amounted to 15 µM. In addition, the “MSG Enh. Ratio” value (compound at 10 μM) is reported as 4.4 @. Regarding `CCOC(=O)[C@H](Cc1ccccc1)NC(=O)/C=C/c1ccc(OC)cc1` [Compound 148, Ethyl (E)-(3-(4-methoxyphenyl)acryloyl)-L-phenylalaninate], the EC50 was 10.1 µM. Further, the “MSG Enh. Ratio” value (compound at 1 μM) is given as 3.5 @.

Turning to `CCOC(=O)[C@@H](NC(=O)c1ccc(COC)cc1)C(C)C` [Compound 110, Ethyl (4-(methoxymethyl)benzoyl)-L-valinate], the EC50 is above 50 µM. For the same compound, the “MSG Enh. Ratio” value (compound at 50 μM) was 2.7 @.

On to `CCOC(=O)[C@H](Cc1ccc(OC)cc1)NC(=O)c1ccc(C)c(C)c1` [Compound 121, Ethyl (S)-2-(3,4-dimethylbenzamido)-3-(4-methoxyphenyl)propanoate], for which the concentration for a half-maximal effect (EC50) is 12 µM. For the setting “compound at 10 μM”, the “MSG Enh. Ratio” value was 7.0 @. `CCOC(=O)CC[C@H](NC(=O)c1ccc(C(C)C)cc1)C(=O)OCC` [Compound 111, Diethyl (4-isopropylbenzoyl)-L-glutamate]: the EC50 came out at 26 µM. Besides, the “MSG Enh. Ratio” value (compound at 50 μM) is reported as 4.4 @. In the same order, the values of `CCC/C=C/C(=O)N[C@H](C(=O)OCC)C(C)C` [Compound 175, Ethyl (E)-hex-2-enoyl-L-valinate] are above 50 µM and 4.4 @.
